17 compounds from patent US10308639B2, “Phosphatidylinositol 3-kinase inhibitors” (Gilead Sciences, Inc., priority 2014, dated 2019) can be followed below.

What all share (type): biochemical
One assay concerns the target T1, PI3Kβ (Homo sapiens, UniProt P42338).
T1 construct: made in house
Put plainly: TR-FRET enzymatic activity assay, PI3Kβ. To be noted: Table 2; TR-FRET, 2x Km ATP, 30 minutes at 25° C. (In TR-FRET formats the signal depends on donor and acceptor labels being close together.)

The next assay addresses T2, PI3Kδ (Homo sapiens, UniProt O00329).
T2 construct: made in house
The experiment in a line: TR-FRET enzymatic activity assay, PI3Kδ. The note with it: Table 2; TR-FRET, 2x Km ATP, 30 minutes at 25° C.

Another assay deals with T3, PI3Kγ (Homo sapiens, UniProt P48736).
T3 construct: made in house
Put plainly: TR-FRET enzymatic activity assay, PI3Kγ. To be noted: read-out: PI3Kγ IC50. The method, boiled down:
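Each PI3K isoform is tested in an enzymatic format. Signal comes from time-resolved fluorescence energy transfer.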

Setting [1] is: Table 2, TR-FRET, 2x Km ATP, 30 minutes at 25° C.

pIC50: −log10 of the molar value. Read-outs that look alike come from different tables or passages of the source.

T2 sequence (O00329 whole entry): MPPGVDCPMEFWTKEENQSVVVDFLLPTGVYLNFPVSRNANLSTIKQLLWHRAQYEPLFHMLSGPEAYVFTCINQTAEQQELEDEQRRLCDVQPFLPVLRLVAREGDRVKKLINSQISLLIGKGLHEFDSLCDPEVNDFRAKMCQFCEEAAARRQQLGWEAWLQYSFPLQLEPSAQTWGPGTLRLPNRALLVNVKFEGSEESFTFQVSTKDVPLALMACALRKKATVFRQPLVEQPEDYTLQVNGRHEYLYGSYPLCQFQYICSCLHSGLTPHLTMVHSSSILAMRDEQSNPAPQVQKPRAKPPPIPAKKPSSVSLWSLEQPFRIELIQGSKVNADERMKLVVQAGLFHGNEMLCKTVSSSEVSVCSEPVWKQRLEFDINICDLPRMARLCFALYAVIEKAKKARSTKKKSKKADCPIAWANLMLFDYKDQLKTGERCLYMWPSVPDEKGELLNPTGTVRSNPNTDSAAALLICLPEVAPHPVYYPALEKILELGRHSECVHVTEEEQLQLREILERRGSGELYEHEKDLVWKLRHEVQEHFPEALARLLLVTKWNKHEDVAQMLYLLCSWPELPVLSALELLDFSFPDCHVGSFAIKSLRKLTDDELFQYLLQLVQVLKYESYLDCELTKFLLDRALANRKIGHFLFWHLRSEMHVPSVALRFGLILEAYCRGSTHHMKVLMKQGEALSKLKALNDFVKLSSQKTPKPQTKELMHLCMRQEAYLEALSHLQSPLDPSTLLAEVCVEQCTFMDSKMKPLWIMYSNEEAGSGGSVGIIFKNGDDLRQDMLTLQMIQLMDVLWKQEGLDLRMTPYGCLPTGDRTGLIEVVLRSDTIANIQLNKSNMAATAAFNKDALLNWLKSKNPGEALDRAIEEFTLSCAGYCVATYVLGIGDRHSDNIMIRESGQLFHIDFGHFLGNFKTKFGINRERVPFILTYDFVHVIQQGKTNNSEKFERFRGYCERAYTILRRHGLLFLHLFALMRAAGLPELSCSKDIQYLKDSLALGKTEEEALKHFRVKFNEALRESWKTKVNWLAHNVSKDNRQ
T2 sequence (P27986 whole entry partner): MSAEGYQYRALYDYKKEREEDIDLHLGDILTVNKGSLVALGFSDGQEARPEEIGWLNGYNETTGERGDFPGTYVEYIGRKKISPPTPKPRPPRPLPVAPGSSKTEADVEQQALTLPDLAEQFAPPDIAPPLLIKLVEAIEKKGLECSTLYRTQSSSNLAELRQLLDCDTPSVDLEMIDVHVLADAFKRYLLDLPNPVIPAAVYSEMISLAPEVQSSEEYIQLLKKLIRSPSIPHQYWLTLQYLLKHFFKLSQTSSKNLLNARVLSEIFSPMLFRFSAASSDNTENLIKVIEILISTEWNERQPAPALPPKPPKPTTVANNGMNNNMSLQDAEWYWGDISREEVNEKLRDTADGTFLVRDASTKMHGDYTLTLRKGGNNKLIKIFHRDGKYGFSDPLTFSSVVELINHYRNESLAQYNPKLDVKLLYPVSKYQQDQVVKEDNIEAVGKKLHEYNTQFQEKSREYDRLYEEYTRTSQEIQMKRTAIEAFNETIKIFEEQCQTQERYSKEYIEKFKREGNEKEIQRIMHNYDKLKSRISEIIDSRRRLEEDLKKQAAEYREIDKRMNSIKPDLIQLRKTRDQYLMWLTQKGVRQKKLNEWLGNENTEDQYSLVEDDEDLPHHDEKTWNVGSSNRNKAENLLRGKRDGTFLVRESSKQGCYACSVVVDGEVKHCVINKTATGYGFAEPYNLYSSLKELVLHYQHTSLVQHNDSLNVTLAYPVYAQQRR
T3 sequence (P48736 whole entry): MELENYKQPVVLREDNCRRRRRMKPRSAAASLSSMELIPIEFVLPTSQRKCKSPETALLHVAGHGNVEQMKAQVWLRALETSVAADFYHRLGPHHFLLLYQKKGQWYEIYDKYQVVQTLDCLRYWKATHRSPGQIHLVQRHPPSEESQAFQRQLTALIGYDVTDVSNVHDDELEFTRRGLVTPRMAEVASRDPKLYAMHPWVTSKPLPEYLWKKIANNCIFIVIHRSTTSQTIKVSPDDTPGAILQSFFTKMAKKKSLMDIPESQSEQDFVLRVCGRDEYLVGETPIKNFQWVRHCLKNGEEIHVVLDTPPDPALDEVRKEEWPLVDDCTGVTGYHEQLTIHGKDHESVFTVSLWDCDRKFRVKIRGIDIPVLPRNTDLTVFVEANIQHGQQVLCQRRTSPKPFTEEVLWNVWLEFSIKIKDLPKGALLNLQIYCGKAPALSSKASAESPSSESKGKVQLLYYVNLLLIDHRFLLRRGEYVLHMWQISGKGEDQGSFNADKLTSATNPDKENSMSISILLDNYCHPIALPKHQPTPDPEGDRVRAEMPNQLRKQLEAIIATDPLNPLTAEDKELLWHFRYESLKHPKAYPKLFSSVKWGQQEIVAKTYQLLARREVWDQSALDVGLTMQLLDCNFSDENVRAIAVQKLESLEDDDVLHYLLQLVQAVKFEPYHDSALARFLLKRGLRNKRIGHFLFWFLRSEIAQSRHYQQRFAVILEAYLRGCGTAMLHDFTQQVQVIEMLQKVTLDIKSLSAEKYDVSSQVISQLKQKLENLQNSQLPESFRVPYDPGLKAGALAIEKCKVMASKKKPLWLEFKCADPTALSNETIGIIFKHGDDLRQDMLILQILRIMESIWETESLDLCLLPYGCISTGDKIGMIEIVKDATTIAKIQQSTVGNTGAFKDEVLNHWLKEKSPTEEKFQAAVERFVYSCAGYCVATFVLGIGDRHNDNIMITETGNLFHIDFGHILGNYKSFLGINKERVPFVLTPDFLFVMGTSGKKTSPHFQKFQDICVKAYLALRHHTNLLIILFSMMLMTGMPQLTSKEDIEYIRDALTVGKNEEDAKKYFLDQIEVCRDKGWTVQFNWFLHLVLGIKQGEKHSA
T1 sequence (P42338 whole entry): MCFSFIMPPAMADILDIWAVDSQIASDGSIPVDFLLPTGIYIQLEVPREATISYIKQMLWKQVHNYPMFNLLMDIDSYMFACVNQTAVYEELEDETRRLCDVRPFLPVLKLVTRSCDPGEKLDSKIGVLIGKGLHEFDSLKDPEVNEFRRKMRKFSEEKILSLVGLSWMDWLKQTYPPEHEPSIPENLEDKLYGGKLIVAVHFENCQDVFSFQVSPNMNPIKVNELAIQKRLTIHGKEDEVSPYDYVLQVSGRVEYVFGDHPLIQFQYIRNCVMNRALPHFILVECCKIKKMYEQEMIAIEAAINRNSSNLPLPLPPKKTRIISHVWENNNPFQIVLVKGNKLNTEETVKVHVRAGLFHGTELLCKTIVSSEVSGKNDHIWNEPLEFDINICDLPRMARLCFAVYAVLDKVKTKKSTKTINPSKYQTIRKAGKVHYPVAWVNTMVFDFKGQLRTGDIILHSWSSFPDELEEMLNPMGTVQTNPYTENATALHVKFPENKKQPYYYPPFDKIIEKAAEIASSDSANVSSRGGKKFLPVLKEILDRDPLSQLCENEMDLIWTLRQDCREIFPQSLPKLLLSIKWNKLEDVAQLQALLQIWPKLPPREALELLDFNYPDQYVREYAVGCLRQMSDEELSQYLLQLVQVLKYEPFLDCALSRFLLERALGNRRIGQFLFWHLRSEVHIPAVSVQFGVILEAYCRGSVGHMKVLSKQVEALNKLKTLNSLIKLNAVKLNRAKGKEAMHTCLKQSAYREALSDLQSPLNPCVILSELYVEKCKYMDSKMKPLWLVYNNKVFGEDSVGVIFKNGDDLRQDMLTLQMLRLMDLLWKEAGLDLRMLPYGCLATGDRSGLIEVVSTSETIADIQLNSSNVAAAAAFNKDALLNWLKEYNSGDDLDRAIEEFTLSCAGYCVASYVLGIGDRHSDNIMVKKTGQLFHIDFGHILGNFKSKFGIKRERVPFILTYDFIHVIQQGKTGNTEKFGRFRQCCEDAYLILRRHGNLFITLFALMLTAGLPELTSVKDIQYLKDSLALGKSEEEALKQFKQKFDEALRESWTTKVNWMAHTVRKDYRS
T1 sequence (P27986 whole entry partner): as the sequence (P27986 whole entry partner) above

The term pIC50 denotes the negative decadic logarithm of the IC50, by convention in mol/L. `Nc1nc(N)c(Cl)c(N[C@H](c2nc3c(Cl)ccc(Cl)c3c(=O)n2-c2cc[nH]n2)C2CC2)n1` [Compound 71, (S)-5,8-dichloro-2-(cyclopropyl((2,6-diamino-5-chloropyrimidin-4-yl)amino)methyl)-3-(1H-pyrazol-3-yl)quinazolin-4(3H)-one]: the negative-log IC50 (pIC50) was 7.42 at PI3Kβ, 7.89 against PI3Kδ and under 5.00 on PI3Kγ.
On to `C[C@H](Nc1ncnc(N)c1C#Cc1ccc(F)cn1)c1nc2cccc(Cl)c2c(=O)n1-c1cc[nH]n1` [Compound 72, (S)-2-(1-((6-amino-5-((5-fluoropyridin-2-yl)ethynyl)pyrimidin-4-yl)amino)ethyl)-5-chloro-3-(1H-pyrazol-3-yl)quinazolin-4(3H)-one], for which the negative-log IC50 (pIC50) was 8.40 against PI3Kβ, 9.30 at PI3Kδ and 5.40 on PI3Kγ (setting [1]).
`CC[C@H](Nc1ncnc2scnc12)c1nc2cccc(C#N)c2c(=O)n1-c1cc[nH]n1` [Compound 73, (S)-4-oxo-3-(1H-pyrazol-3-yl)-2-(1-(thiazolo[5,4-d]pyrimidin-7-ylamino)propyl)-3,4-dihydroquinazoline-5-carbonitrile]: the negative-log IC50 (pIC50) against PI3Kβ is 7.02; on PI3Kδ, 7.74; on PI3Kγ, under 5.00.
The matching figures for `CC[C@H](Nc1ncnc2scnc12)c1nc2c(C#N)cccc2c(=O)n1-c1cc[nH]n1` [Compound 74, (S)-4-oxo-3-(1H-pyrazol-3-yl)-2-(1-(thiazolo[5,4-d]pyrimidin-7-ylamino)propyl)-3,4-dihydroquinazoline-8-carbonitrile]: 7.70, 8.30 and under 5.00.
With `CC[C@H](Nc1nc(N)nc(N)c1C#N)c1nc2c(C#N)cccc2c(=O)n1-c1cc[nH]n1` [Compound 75, (S)-2-(1-((2,6-diamino-5-cyanopyrimidin-4-yl)amino)propyl)-4-oxo-3-(1H-pyrazol-3-yl)-3,4-dihydroquinazoline-8-carbonitrile], the negative logarithm of the IC50 (pIC50) against PI3Kβ was 9.00; against PI3Kδ, 8.52; at PI3Kγ (setting [1]) it was 5.29.
The matching figures for `CC[C@H](Nc1nc(N)nc(C)c1C#N)c1nc2c(C#N)cccc2c(=O)n1-c1cc[nH]n1` [Compound 76, (S)-2-(1-((2-amino-5-cyano-6-methylpyrimidin-4-yl)amino)propyl)-4-oxo-3-(1H-pyrazol-3-yl)-3,4-dihydroquinazoline-8-carbonitrile]: 9.22, 8.70 and 5.20.
In the same order, the values of `CC[C@H](Nc1ncnc2scnc12)c1nc2cccc(Cl)c2c(=O)n1-c1n[nH]cc1Br` [Compound 77, (S)-3-(4-bromo-1H-pyrazol-3-yl)-5-chloro-2-(1-(thiazolo[5,4-d]pyrimidin-7-ylamino)propyl)quinazolin-4(3H)-one] are 6.85, 8.30 and 5.77.
As for `CC[C@H](Nc1nc(N)nc(N)c1Cl)c1nc2c(C#N)cccc2c(=O)n1-c1cc[nH]n1` [Compound 78, (S)-2-(1-((2,6-diamino-5-chloropyrimidin-4-yl)amino)propyl)-4-oxo-3-(1H-pyrazol-3-yl)-3,4-dihydroquinazoline-8-carbonitrile], the pIC50 on PI3Kβ is 6.72; on PI3Kδ, 7.28; on PI3Kγ, under 5.00.
Regarding `CC[C@H](Nc1nc(N)nc2[nH]nc(Br)c12)c1nc2cccc(C#N)c2c(=O)n1-c1cn[nH]c1` [Compound 79, (S)-2-(1-((6-amino-3-bromo-1H-pyrazolo[3,4-d]pyrimidin-4-yl)amino)propyl)-4-oxo-3-(1H-pyrazol-4-yl)-3,4-dihydroquinazoline-5-carbonitrile], the pIC50 against PI3Kβ is 6.19; on PI3Kδ, 6.47; at PI3Kγ (setting [1]) it was 5.05.
On to `CC[C@H](Nc1nc(N)nc2[nH]nc(Br)c12)c1nc2c(C#N)cccc2c(=O)n1-c1cc[nH]n1` [Compound 80, (S)-2-(1-((6-amino-3-bromo-1H-pyrazolo[3,4-d]pyrimidin-4-yl)amino)propyl)-4-oxo-3-(1H-pyrazol-3-yl)-3,4-dihydroquinazoline-8-carbonitrile], for which the pIC50 against PI3Kβ was 7.66; against PI3Kδ, 7.46; on PI3Kγ, under 5.00.
In the same order, the values of `CC[C@H](Nc1nc(N)nc2[nH]nc(Br)c12)c1nc2c(Cl)ccc(Cl)c2c(=O)n1-c1cc[nH]n1` [Compound 81, (S)-2-(1-((6-amino-3-bromo-1H-pyrazolo[3,4-d]pyrimidin-4-yl)amino)propyl)-5,8-dichloro-3-(1H-pyrazol-3-yl)quinazolin-4(3H)-one] are 7.92, 7.80 and under 5.00.
In the same order, the values of `CC[C@H](Nc1nc(Cl)nc2[nH]ncc12)c1nc2c(Cl)ccc(Cl)c2c(=O)n1-c1cc[nH]n1` [Compound 82, (S)-5,8-dichloro-2-(1-((6-chloro-1H-pyrazolo[3,4-d]pyrimidin-4-yl)amino)propyl)-3-(1H-pyrazol-3-yl)quinazolin-4(3H)-one] are 5.33, 5.39 and under 5.00.
With `CC[C@H](Nc1nc(N)nc(N)c1C#N)c1nc2cccc(Cl)c2c(=O)n1-c1n[nH]cc1Br` [Compound 83, (S)-2,4-diamino-6-((1-(3-(4-bromo-1H-pyrazol-3-yl)-5-chloro-4-oxo-3,4-dihydroquinazolin-2-yl)propyl)amino)pyrimidine-5-carbonitrile], the figures for the negative logarithm of the IC50 (pIC50) on PI3Kβ, against PI3Kδ and at PI3Kγ (setting [1]) were 7.89, 9.00 and 6.62, respectively.
In the same order, the values of `C[C@H](Nc1nc(N)nc(N)c1C#N)c1nc2cccc(Cl)c2c(=O)n1-c1n[nH]cc1Br` [Compound 84, (S)-2,4-diamino-6-((1-(3-(4-bromo-1H-pyrazol-3-yl)-5-chloro-4-oxo-3,4-dihydroquinazolin-2-yl)ethyl)amino)pyrimidine-5-carbonitrile] are 8.10, 9.40 and 7.03.
In the same order, the values of `C[C@H](Nc1ncnc2scnc12)c1nc2c(Cl)ccc(Cl)c2c(=O)n1-c1n[nH]cc1Br` [Compound 85, (S)-3-(4-bromo-1H-pyrazol-3-yl)-5,8-dichloro-2-(1-(thiazolo[5,4-d]pyrimidin-7-ylamino)ethyl)quinazolin-4(3H)-one] are 6.77, 8.40 and 5.05.
For `CC[C@H](Nc1ncnc2scnc12)c1nc2c(Cl)ccc(Cl)c2c(=O)n1-c1n[nH]cc1Br` [Compound 86, (S)-3-(4-bromo-1H-pyrazol-3-yl)-5,8-dichloro-2-(1-(thiazolo[5,4-d]pyrimidin-7-ylamino)propyl)quinazolin-4(3H)-one], the values for the pIC50 against PI3Kβ, against PI3Kδ and on PI3Kγ were 6.47, 7.72 and under 5.00, respectively.
Take `CC[C@H](Nc1ncnc2scnc12)c1nc2cccc(S(C)(=O)=O)c2c(=O)n1-c1cc[nH]n1` [Compound 87, (S)-5-(methylsulfonyl)-3-(1H-pyrazol-3-yl)-2-(1-(thiazolo[5,4-d]pyrimidin-7-ylamino)propyl)quinazolin-4(3H)-one]: the pIC50 on PI3Kβ was 7.15; at PI3Kδ, 9.40; at PI3Kγ (setting [1]) it was 5.09.
